Experimental data taken from patent publication US20260297108A1, “NOVEL INHIBITORS OF PIKFYVE AND METHODS USING SAME” (priority 2023, published 2026).

Tests used:
[1] = tested on: SARS-CoV2 (Delta); assay: SARS-COV-2 IFA, inhibition of CPE (Delta strain B.1.617); format: cell-based, SARS-COV-2 Delta strain B.1.617; conditions: CC50 divided by EC50
[2] = in vitro; conditions: dog, mdck
[3] = in vitro; conditions: monkey, vero cells
[4] = tested on: Marburg; format: cell-based, Marburg virus (Angola strain)
[5] = tested on: Influenza A; assay: Influenza A, inhibition of CPE; format: cell-based, influenza A strain California/07/09 (H1N1) pdm09; conditions: CC50 divided by EC50
[6] = tested on: SARS-CoV2; assay: SARS-COV-2 IFA, inhibition of CPE (strain USA-WA1/2020); format: cell-based; conditions: CC50 divided by EC50
[7] = tested on: MDCK cells; conditions: dog

## Cc1cccc(-c2ccn(-c3nc(N4CCOCC4)c4sc(CN5CCN(S(C)(=O)=O)CC5)cc4n3)n2)c1 [Ex. 2, 4-(6-((4-(methylsulfonyl)piperazin-1-yl)methyl)-2-(3-(m-tolyl)-1H-pyrazol-1-yl)thieno[3,2-d]pyrimidin-4-yl)morpholine]
[1]
  Selectivity Index: >1000
[2]
  CC50: > 3 µM
[3]
  CC50 at 24 h: > 3 µM
[4]
  Selectivity Index: >15000
[5]
  Selectivity Index: >150
[6]
  Selectivity Index: >150
[7]
  CC50: > 150 µM
